Assay results reported in US9617276B2, “Compounds and methods for treating AIDS and HIV infections” (priority 2009, dated 2017).
pIC50, pKi: −log10 of the molar value. Read-outs that look alike come from different tables or passages of the source.

Experiments:
HIV-1 protease = target: T1, HIV-1 protease (Human immunodeficiency virus type 1 group M subtype B, UniProt P04585); assay: HIV protease enzyme inhibition, fluorometric assay of Toth and Marshall; format: biochemical; details: read-out: Ki
T1 construct: A simple, continuous fluorometric assay for HIV protease
Experimental: (§1) The inhibitory potencies of acyclic and cyclic inhibitors were measured by the assay protocol of Toth and Marshall (Toth, M. V.; Marshall, G. R. A simple, continuous fluorometric assay for HIV protease. Int. J. Pep. Protien Res. 1990, 36, 544-55).

HIV-1 = assay: antiviral assay (IC50); format: cell-based; details: read-out: IC50
Experimental: as §1

[1] = Human immunodeficiency virus 1, Table 1, acyclic compounds
[2] = Human immunodeficiency virus 1, Table 2
[3] = Human immunodeficiency virus 1, Table 3, E and Z isomers
[4] = Human immunodeficiency virus 1, Table 4

Compound: C=CCCCCOc1cc(OC)ccc1S(=O)(=O)N(CC(C)CC=C)C[C@@H](O)[C@H](Cc1ccccc1)NC(=O)O[C@H]1CO[C@H]2OCC[C@H]21 (single isomer, unassigned) [Compound 19b]
- pKi (HIV-1 protease; Table 4): > 8.00
- pIC50 (HIV-1; Table 4): > 7.00

Compound: C=CCCCCOc1cc(OC)ccc1S(=O)(=O)N(CC(C)CC=C)C[C@@H](O)[C@H](Cc1ccccc1)NC(=O)O[C@H]1CO[C@H]2OCC[C@H]21 (single isomer, unassigned) [Compound 19c]
- pKi (HIV-1 protease; Table 4): > 8.00
- pIC50 (HIV-1; Table 4): < 6.00

Compound: C=CCCCCOc1cc(OC)ccc1S(=O)(=O)N(CCCCC=C)CC(O)C(Cc1ccccc1)NC(=O)OC1COC2OCCC12 (stereo not shown) [Compound 13a]
- pKi (HIV-1 protease; Table 1, acyclic compounds): > 7.00
- pKi (HIV-1 protease): 7.80
- pIC50 (HIV-1; [1]): < 6.00

Compound: C=CCCCCN(CC(O)C(Cc1ccccc1)NC(=O)OC1COC2OCCC12)S(=O)(=O)c1ccc(OC)cc1OCCCC=C (stereo not shown) [Compound 13b]
- pKi (HIV-1 protease; Table 1, acyclic compounds): > 7.00
- pKi (HIV-1 protease): 7.96
- pIC50 (HIV-1; [1]): < 6.00
- pIC50 (HIV-1; Human immunodeficiency virus 1): < 6.00

Compound: C=CCCCCN(CC(O)C(Cc1ccccc1)NC(=O)OC1COC2OCCC12)S(=O)(=O)c1ccc(OC)cc1OCCC=C (stereo not shown) [Compound 13c]
- pKi (HIV-1 protease; Table 1, acyclic compounds): > 8.00

Compound: C=CCCCCN(CC(O)C(Cc1ccccc1)NC(=O)OC1COC2OCCC12)S(=O)(=O)c1ccc(OC)cc1OCC=C (stereo not shown) [Compound 13d]
- pKi (HIV-1 protease; Table 1, acyclic compounds): > 8.00

Compound: C=CCCCCOc1cc(OC)ccc1S(=O)(=O)N(CC=C)CC(O)C(Cc1ccccc1)NC(=O)OC1COC2OCCC12 (stereo not shown) [Compound 13e]
- pKi (HIV-1 protease; Table 1, acyclic compounds): > 8.00
- pKi (HIV-1 protease): 8.77
- pIC50 (HIV-1; [1]): > 7.00

Compound: C=CCCCOc1cc(OC)ccc1S(=O)(=O)N(CC=C)CC(O)C(Cc1ccccc1)NC(=O)OC1COC2OCCC12 (stereo not shown) [Compound 13f]
- pKi (HIV-1 protease; Table 1, acyclic compounds): > 9.00
- pIC50 (HIV-1; [1]): > 7.00

Compound: C=CCCOc1cc(OC)ccc1S(=O)(=O)N(CC=C)CC(O)C(Cc1ccccc1)NC(=O)OC1COC2OCCC12 (stereo not shown) [Compound 13g]
- pKi (HIV-1 protease; Table 1, acyclic compounds): > 9.00

Compound: COc1ccc2c(c1)OCCCCC=CCCCCN(CC(O)C(Cc1ccccc1)NC(=O)OC1COC3OCCC13)S2(=O)=O (stereo not shown) [Compound 14a-E]
- pKi (HIV-1 protease; Table 3, E and Z isomers): > 9.00
- pIC50 (HIV-1; Table 3, E and Z isomers): > 7.00

Compound: COc1ccc2c(c1)OCCCCC=CCCCCN(CC(O)C(Cc1ccccc1)NC(=O)OC1COC3OCCC13)S2(=O)=O (stereo not shown) [Compound 14a-Z]
- pKi (HIV-1 protease; Table 3, E and Z isomers): > 9.00
- pIC50 (HIV-1; Table 3, E and Z isomers): < 6.00

Compound: COc1ccc2c(c1)OCCCCC=CCCCCN(CC(O)C(Cc1ccccc1)NC(=O)OC1COC3OCCC13)S2(=O)=O (stereo not shown) [Compound 14a]
- pKi (HIV-1 protease; Table 2): > 9.00
- pIC50 (HIV-1; [2]): > 7.00

Compound: COc1ccc2c(c1)OCCCC=CCCCCN(CC(O)C(Cc1ccccc1)NC(=O)OC1COC3OCCC13)S2(=O)=O (stereo not shown) [Compound 14b-Z]
- pKi (HIV-1 protease; Table 3, E and Z isomers): > 9.00
- pIC50 (HIV-1; [3]): > 8.00

Compound: COc1ccc2c(c1)OCCC=CCCCCN(CC(O)C(Cc1ccccc1)NC(=O)OC1COC3OCCC13)S2(=O)=O (stereo not shown) [Compound 14c-E]
- pIC50 (HIV-1; [3]): > 8.00

Compound: COc1ccc2c(c1)OCCCCC=CCN(CC(O)C(Cc1ccccc1)NC(=O)OC1COC3OCCC13)S2(=O)=O (stereo not shown) [Compound 14e]
- pKi (HIV-1 protease; Table 2): > 9.00
- pIC50 (HIV-1; [2]): > 7.00

Compound: COc1ccc2c(c1)OCCCC=CCN(CC(O)C(Cc1ccccc1)NC(=O)OC1COC3OCCC13)S2(=O)=O (stereo not shown) [Compound 14f]
- pKi (HIV-1 protease; Table 2): > 9.00
- pIC50 (HIV-1; [2]): > 7.00

Compound: COc1ccc2c(c1)OCCC=CCN(CC(O)C(Cc1ccccc1)NC(=O)OC1COC3OCCC13)S2(=O)=O (stereo not shown) [Compound 14g]
- pKi (HIV-1 protease; Table 2): > 9.00

Compound: COc1ccc2c(c1)OCC=CCN(CC(O)C(Cc1ccccc1)NC(=O)OC1COC3OCCC13)S2(=O)=O (stereo not shown) [Compound 14h]
- pKi (HIV-1 protease; Table 2): > 8.00

Compound: COc1ccc2c(c1)OCCCCCCCCCCN(CC(O)C(Cc1ccccc1)NC(=O)OC1COC3OCCC13)S2(=O)=O (stereo not shown) [Compound 15a]
- pKi (HIV-1 protease; Table 2): > 9.00
- pIC50 (HIV-1; [2]): > 7.00

Compound: COc1ccc2c(c1)OCCCCCCCCCN(CC(O)C(Cc1ccccc1)NC(=O)OC1COC3OCCC13)S2(=O)=O (stereo not shown) [Compound 15b]
- pKi (HIV-1 protease; Table 2): > 9.00
- pKi (HIV-1 protease): > 9.15
- pIC50 (HIV-1; [2]): > 7.00
- pIC50 (HIV-1; Human immunodeficiency virus 1): > 7.31

Compound: COc1ccc2c(c1)OCCCCCCCN(CC(O)C(Cc1ccccc1)NC(=O)OC1COC3OCCC13)S2(=O)=O (stereo not shown) [Compound 15d]
- pKi (HIV-1 protease; Table 2): > 9.00
- pIC50 (HIV-1; [2]): > 7.00

Compound: C=CCCCCOc1cc(OC)ccc1S(=O)(=O)N(C[C@@H](O)[C@H](Cc1ccccc1)NC(=O)O[C@H]1CO[C@H]2OCC[C@H]21)CC(C)(C)CC=C [Compound 19a, (3R,3aS,6aR)-Hexahydrofuro[2,3-b]furan-3-yl (2S,3R)-4-(N-(2,2-dimethylpent-4-enyl)-2-(hex-5-enyloxy)-4-methoxyphenylsulfonamido)-3-hydroxy-1-phenylbutan-2-ylcarbamate]
- pKi (HIV-1 protease; Table 4): > 7.00
- pIC50 (HIV-1; [4]): < 6.00

Compound: COc1ccc2c(c1)OCCCCC=CCC(C)(C)CN(CC(O)C(Cc1ccccc1)NC(=O)OC1COC3OCCC13)S2(=O)=O (stereo not shown) [Compound 20a]
- pKi (HIV-1 protease; Table 4): > 7.00
- pIC50 (HIV-1; [4]): < 6.00

Compound: COc1ccc2c(c1)OCCCCC=CCC(C)CN(CC(O)C(Cc1ccccc1)NC(=O)OC1COC3OCCC13)S2(=O)=O (stereo not shown) [Compound 20b]
- pKi (HIV-1 protease; Table 4): > 8.00
- pIC50 (HIV-1; Table 4): > 7.00

Compound: COc1ccc2c(c1)OCCCCC=CCC(C)CN(CC(O)C(Cc1ccccc1)NC(=O)OC1COC3OCCC13)S2(=O)=O (stereo not shown) [Compound 20c]
- pKi (HIV-1 protease; Table 4): > 9.00
- pKi (HIV-1 protease): 9.51
- pIC50 (HIV-1; Human immunodeficiency virus 1): 8.05
- pIC50 (HIV-1; Table 4): > 8.00

Compound: COc1ccc2c(c1)OCCCCCN1CCC[C@@H]1CN(C[C@@H](O)[C@H](Cc1ccccc1)NC(=O)O[C@H]1CO[C@H]3OCC[C@H]31)S2(=O)=O [Compound 00610A]
- pKi (HIV-1 protease; Table 5): < 7.00

Compound: C=CCN1CCCC1CN(C[C@@H](O)[C@H](Cc1ccccc1)NC(=O)O[C@H]1CO[C@H]2OCC[C@H]21)S(=O)(=O)c1ccc(OC)cc1 (stereo partly shown) [Compound 0649A]
- pKi (HIV-1 protease; Table 5): > 8.00

Compound: C=CCOc1cc(OC)ccc1S(=O)(=O)N(CC1CCCN1CC=C)C[C@@H](O)[C@H](Cc1ccccc1)NC(=O)O[C@H]1CO[C@H]2OCC[C@H]21 (stereo partly shown) [Compound 0659A]
- pKi (HIV-1 protease; Table 5): < 7.00

Compound: COc1ccc2c(c1)OCC/C=C/CN1CCC[C@H]1CN(C[C@@H](O)[C@H](Cc1ccccc1)NC(=O)O[C@H]1CO[C@H]3OCC[C@H]31)S2(=O)=O [Compound 00810A]
- pKi (HIV-1 protease; Table 5): < 7.00

Compound: COc1ccc2c(c1)OCC/C=C/CN1C(=O)CC[C@@H]1CN(C[C@@H](O)[C@H](Cc1ccccc1)NC(=O)OC(C)(C)C)S2(=O)=O [Compound 00910A]
- pKi (HIV-1 protease; Table 5): < 7.00

Compound: COc1ccc2c(c1)OCC/C=C\CN1C(=O)CC[C@@H]1CN(C[C@@H](O)[C@H](Cc1ccccc1)NC(=O)OC(C)(C)C)S2(=O)=O [Compound 01010A]
- pKi (HIV-1 protease; Table 5): < 7.00

Compound: C=CCN1C(=O)CC[C@@H]1CN(C[C@@H](O)[C@H](Cc1ccccc1)NC(=O)O[C@H]1CO[C@H]2OCC[C@H]21)S(=O)(=O)c1ccc(OC)cc1 [Compound 01110A]
- pKi (HIV-1 protease; Table 5): > 9.00

Compound: COc1ccc2c(c1)OCC/C=C/CN1C(=O)CC[C@@H]1CN(C[C@@H](O)[C@H](Cc1ccccc1)NC(=O)O[C@H]1CO[C@H]3OCC[C@H]31)S2(=O)=O [Compound 01210A]
- pKi (HIV-1 protease; Table 5): > 9.00

Compound: COc1ccc2c(c1)OCC/C=C\CN1C(=O)CC[C@@H]1CN(C[C@@H](O)[C@H](Cc1ccccc1)NC(=O)O[C@H]1CO[C@H]3OCC[C@H]31)S2(=O)=O [Compound 01310A]
- pKi (HIV-1 protease; Table 5): > 7.00

Compound: COc1ccc2c(c1)OCCC=CCN1C(=O)CC[C@H]1CN(C[C@@H](O)[C@H](Cc1ccccc1)NC(=O)O[C@H]1CO[C@H]3OCC[C@H]31)S2(=O)=O [Compound 01410A]
- pKi (HIV-1 protease; Table 5): < 7.00

Compound: COc1ccc2c(c1)OCCCCCN1C(=O)CC[C@H]1CN(C[C@@H](O)[C@H](Cc1ccccc1)NC(=O)O[C@H]1CO[C@H]3OCC[C@H]31)S2(=O)=O [Compound 02110A]
- pKi (HIV-1 protease; Table 5): > 7.00

Compound: COc1ccc2c(c1)OCCCCCN1C(=O)CC[C@@H]1CN(C[C@@H](O)[C@H](Cc1ccccc1)NC(=O)O[C@H]1CO[C@H]3OCC[C@H]31)S2(=O)=O [Compound 02210A]
- pKi (HIV-1 protease; Table 5): > 9.00
